Tests used:
Assay in all cases: cells
KALS-1 = format: functional, cell-based, Homo sapiens; settings: Homo sapiens, KALS-1; read-out: IC50
Description: SANGER: Inhibition of human KALS-1 cell growth in a cell viability assay.

ONS-76 = format: functional, cell-based, Homo sapiens; settings: Homo sapiens, ONS-76
Description: SANGER: Inhibition of human ONS-76 cell growth in a cell viability assay.

QIMR-WIL = format: functional, cell-based, Homo sapiens; settings: Homo sapiens, QIMR-WIL
Description: SANGER: Inhibition of human QIMR-WIL cell growth in a cell viability assay.

EW-18 = format: functional, cell-based, Homo sapiens; settings: Homo sapiens, EW-18; read-out: IC50
Description: SANGER: Inhibition of human EW-18 cell growth in a cell viability assay.

EW-1 = format: functional, cell-based, Homo sapiens; settings: Homo sapiens, EW-1
Description: SANGER: Inhibition of human EW-1 cell growth in a cell viability assay.

D-263MG = format: functional, cell-based, Homo sapiens; settings: Homo sapiens, D-263MG
Description: SANGER: Inhibition of human D-263MG cell growth in a cell viability assay.

SW684 = format: functional, cell-based, Homo sapiens; settings: Homo sapiens, SW684; read-out: IC50
RS4-11 = format: functional, cell-based, Homo sapiens; settings: Homo sapiens, RS4-11
Description: SANGER: Inhibition of human RS4-11 cell growth in a cell viability assay.

A704 = format: functional, cell-based; settings: Homo sapiens
Description: SANGER: Inhibition of human A704 cell growth in a cell viability assay.

TE-5 = format: functional, cell-based, Homo sapiens; settings: Homo sapiens, TE-5
Description: SANGER: Inhibition of human TE-5 cell growth in a cell viability assay.

COLO-829 = format: functional, cell-based, Homo sapiens; settings: Homo sapiens, COLO-829
Description: SANGER: Inhibition of human COLO-829 cell growth in a cell viability assay.

no-10 = format: functional, cell-based, Homo sapiens; settings: Homo sapiens
Description: SANGER: Inhibition of human no-10 cell growth in a cell viability assay.

SK-NEP-1 = format: functional, cell-based, Homo sapiens; settings: Homo sapiens, SK-NEP-1
Description: SANGER: Inhibition of human SK-NEP-1 cell growth in a cell viability assay.

GCIY = format: functional, cell-based, Homo sapiens; settings: Homo sapiens, GCIY
Description: SANGER: Inhibition of human GCIY cell growth in a cell viability assay.

MHH-PREB-1 = format: functional, cell-based, Homo sapiens; settings: Homo sapiens, MHH-PREB-1
Description: SANGER: Inhibition of human MHH-PREB-1 cell growth in a cell viability assay.

HAL-01 = format: functional, cell-based, Homo sapiens; settings: Homo sapiens, HAL-01
Description: SANGER: Inhibition of human HAL-01 cell growth in a cell viability assay.

IST-MES1 = format: functional, cell-based, Homo sapiens; settings: Homo sapiens, IST-MES1
Description: SANGER: Inhibition of human IST-MES1 cell growth in a cell viability assay.

LB831-BLC = format: functional, cell-based, Homo sapiens; settings: Homo sapiens, LB831-BLC
Description: SANGER: Inhibition of human LB831-BLC cell growth in a cell viability assay.

C2BBe1 = format: functional, cell-based, Homo sapiens; settings: Homo sapiens, C2BBe1
Description: SANGER: Inhibition of human C2BBe1 cell growth in a cell viability assay.

A101D = format: functional, cell-based, Homo sapiens; settings: Homo sapiens, A101D
Description: SANGER: Inhibition of human A101D cell growth in a cell viability assay.

NCI-H82 = format: functional, cell-based, Homo sapiens; settings: Homo sapiens, NCI-H82
Description: SANGER: Inhibition of human NCI-H82 cell growth in a cell viability assay.

C8166 = format: functional, cell-based, Homo sapiens; settings: Homo sapiens, C8166
Description: SANGER: Inhibition of human C8166 cell growth in a cell viability assay.

LS-513 = format: functional, cell-based, Homo sapiens; settings: Homo sapiens, LS-513
Description: SANGER: Inhibition of human LS-513 cell growth in a cell viability assay.

TE-6 = format: functional, cell-based, Homo sapiens; settings: Homo sapiens, TE-6
Description: SANGER: Inhibition of human TE-6 cell growth in a cell viability assay.

MEG-01 = format: functional, cell-based, Homo sapiens; settings: Homo sapiens, MEG-01
Description: SANGER: Inhibition of human MEG-01 cell growth in a cell viability assay.

TGBC1TKB = format: functional, cell-based, Homo sapiens; settings: Homo sapiens, TGBC1TKB
Description: SANGER: Inhibition of human TGBC1TKB cell growth in a cell viability assay.

OVCAR-4 = format: functional, cell-based, Homo sapiens; settings: Homo sapiens, OVCAR-4
Description: SANGER: Inhibition of human OVCAR-4 cell growth in a cell viability assay.

BB65-RCC = format: functional, cell-based, Homo sapiens; settings: Homo sapiens, BB65-RCC
Description: SANGER: Inhibition of human BB65-RCC cell growth in a cell viability assay.

KNS-81-FD = format: functional, cell-based, Homo sapiens; settings: Homo sapiens, KNS-81-FD
Description: SANGER: Inhibition of human KNS-81-FD cell growth in a cell viability assay.

DEL = format: functional, cell-based, Homo sapiens; settings: Homo sapiens, DEL
DJM-1 = format: functional, cell-based, Homo sapiens; settings: Homo sapiens, DJM-1
SH-4 = format: functional, cell-based; settings: Homo sapiens
Description: SANGER: Inhibition of human SH-4 cell growth in a cell viability assay.

ES8 = format: functional, cell-based, Homo sapiens; settings: Homo sapiens, ES8
Description: SANGER: Inhibition of human ES8 cell growth in a cell viability assay.

SCC-15 = format: functional, cell-based, Homo sapiens; settings: Homo sapiens, SCC-15
Mo = format: functional, cell-based, Homo sapiens; settings: Homo sapiens, Mo
Description: SANGER: Inhibition of human Mo-T cell growth in a cell viability assay.

LOX IMVI = format: functional, cell-based, Homo sapiens; settings: Homo sapiens, LOX IMVI
Description: SANGER: Inhibition of human LOXIMVI cell growth in a cell viability assay.

KS-1 = format: functional, cell-based; settings: Homo sapiens
Description: SANGER: Inhibition of human KS-1 cell growth in a cell viability assay.

ES6 = format: functional, cell-based; settings: Homo sapiens
Description: SANGER: Inhibition of human ES6 cell growth in a cell viability assay.

COLO-684 = format: functional, cell-based, Homo sapiens; settings: Homo sapiens, COLO-684
DMS-114 = format: functional, cell-based, Homo sapiens; settings: Homo sapiens, DMS-114
MZ2-MEL = format: functional, cell-based, Homo sapiens; settings: Homo sapiens, MZ2-MEL
Description: SANGER: Inhibition of human MZ2-MEL cell growth in a cell viability assay.

TK-10 = format: functional, cell-based, Homo sapiens; settings: Homo sapiens, TK-10
Description: SANGER: Inhibition of human TK10 cell growth in a cell viability assay.

ETK-1 = format: functional, cell-based, Homo sapiens; settings: Homo sapiens, ETK-1
Description: SANGER: Inhibition of human ETK-1 cell growth in a cell viability assay.

Calu-6 = format: functional, cell-based, Homo sapiens; settings: Homo sapiens, Calu-6
Description: SANGER: Inhibition of human Calu-6 cell growth in a cell viability assay.

IST-SL1 = format: functional, cell-based, Homo sapiens; settings: Homo sapiens, IST-SL1
Description: SANGER: Inhibition of human IST-SL1 cell growth in a cell viability assay.

L-428 = format: functional, cell-based, Homo sapiens; settings: Homo sapiens, L-428
Description: SANGER: Inhibition of human L-428 cell growth in a cell viability assay.

MZ7-mel = format: functional, cell-based, Homo sapiens; settings: Homo sapiens, MZ7-mel
Description: SANGER: Inhibition of human MZ7-mel cell growth in a cell viability assay.

Ramos-2G6-4C10 = format: functional, cell-based, Homo sapiens; settings: Homo sapiens, Ramos-2G6-4C10
Description: SANGER: Inhibition of human Ramos-2G6-4C10 cell growth in a cell viability assay.

L-363 = format: functional, cell-based, Homo sapiens; settings: Homo sapiens, L-363
KM12 = format: functional, cell-based, Homo sapiens; settings: Homo sapiens, KM12
Description: SANGER: Inhibition of human KM12 cell growth in a cell viability assay.

## NC(=O)Nc1cc(-c2cccc(F)c2)sc1C(=O)N[C@H]1CCCNC1 [AZD-7762]
KALS-1
  IC50: 326 nM
ONS-76
  IC50: 62 nM
QIMR-WIL
  IC50: 163 nM
EW-18
  IC50: 1600 nM
EW-1
  IC50: 189 nM
D-263MG
  IC50: 909 nM
SW684
  IC50: > 2000 nM
RS4-11
  IC50: 203 nM
A704
  IC50: 539 nM
TE-5
  IC50: 1420 nM
COLO-829
  IC50: 298 nM
no-10
  IC50: > 2000 nM
SK-NEP-1
  IC50: 464 nM
GCIY
  IC50: 1390 nM
MHH-PREB-1
  IC50: 34.4 nM
HAL-01
  IC50: 210 nM
IST-MES1
  IC50: > 2000 nM
LB831-BLC
  IC50: > 2000 nM
C2BBe1
  IC50: 689 nM
A101D
  IC50: 1700 nM
NCI-H82
  IC50: > 2000 nM
C8166
  IC50: 1910 nM
LS-513
  IC50: 749 nM
TE-6
  IC50: > 2000 nM
MEG-01
  IC50: 346 nM
TGBC1TKB
  IC50: 1920 nM
OVCAR-4
  IC50: 320 nM
BB65-RCC
  IC50: 271 nM
KNS-81-FD
  IC50: > 2000 nM
DEL
  IC50: 45.9 nM
DJM-1
  IC50: 886 nM
SH-4
  IC50: > 2000 nM
ES8
  IC50: 99.2 nM
SCC-15
  IC50: > 2000 nM
Mo
  IC50: > 2000 nM
LOX IMVI
  IC50: 429 nM
KS-1
  IC50: 466 nM
ES6
  IC50: 442 nM
COLO-684
  IC50: 294 nM
DMS-114
  IC50: > 2000 nM
MZ2-MEL
  IC50: > 2000 nM
TK-10
  IC50: 379 nM
ETK-1
  IC50: 637 nM
Calu-6
  IC50: 1410 nM
IST-SL1
  IC50: 628 nM
L-428
  IC50: > 2000 nM
MZ7-mel
  IC50: 347 nM
Ramos-2G6-4C10
  IC50: 148 nM
L-363
  IC50: 73.9 nM
KM12
  IC50: 51.6 nM

## C[C@@H](Oc1cc(-c2cnn(C3CCNCC3)c2)cnc1N)c1c(Cl)ccc(F)c1Cl [CRIZOTINIB]
KALS-1
  IC50: > 2000 nM
ONS-76
  IC50: > 2000 nM
QIMR-WIL
  IC50: > 2000 nM
EW-18
  IC50: > 2000 nM
EW-1
  IC50: > 2000 nM
D-263MG
  IC50: > 2000 nM
SW684
  IC50: > 2000 nM
RS4-11
  IC50: > 2000 nM
A704
  IC50: > 2000 nM
TE-5
  IC50: > 2000 nM
COLO-829
  IC50: > 2000 nM
no-10
  IC50: > 2000 nM
SK-NEP-1
  IC50: > 2000 nM
GCIY
  IC50: > 2000 nM
MHH-PREB-1
  IC50: > 2000 nM
HAL-01
  IC50: > 2000 nM
IST-MES1
  IC50: > 2000 nM
LB831-BLC
  IC50: > 2000 nM
C2BBe1
  IC50: > 2000 nM
A101D
  IC50: > 2000 nM
NCI-H82
  IC50: > 2000 nM
C8166
  IC50: > 2000 nM
LS-513
  IC50: > 2000 nM
TE-6
  IC50: > 2000 nM
MEG-01
  IC50: 858 nM
TGBC1TKB
  IC50: > 2000 nM
OVCAR-4
  IC50: > 2000 nM
BB65-RCC
  IC50: > 2000 nM
KNS-81-FD
  IC50: > 2000 nM
DEL
  IC50: 370 nM
DJM-1
  IC50: > 2000 nM
SH-4
  IC50: > 2000 nM
ES8
  IC50: > 2000 nM
SCC-15
  IC50: > 2000 nM
Mo
  IC50: > 2000 nM
LOX IMVI
  IC50: > 2000 nM
KS-1
  IC50: > 2000 nM
ES6
  IC50: > 2000 nM
COLO-684
  IC50: > 2000 nM
DMS-114
  IC50: > 2000 nM
MZ2-MEL
  IC50: > 2000 nM
TK-10
  IC50: > 2000 nM
ETK-1
  IC50: > 2000 nM
Calu-6
  IC50: > 2000 nM
IST-SL1
  IC50: > 2000 nM
L-428
  IC50: > 2000 nM
MZ7-mel
  IC50: > 2000 nM
Ramos-2G6-4C10
  IC50: > 2000 nM
L-363
  IC50: > 2000 nM
KM12
  IC50: 707 nM

Reference: ChEMBL document CHEMBL1201861, “Genomics of Drug Sensitity in Cancer screening data, Wellcome Trust Sanger Institute”
